We go through 3 compounds from ChEMBL document CHEMBL4138057, “Structure-guided optimization of quinoline inhibitors of Plasmodium N-myristoyltransferase” (Medchemcomm, 2017).

Molecules are shown by their SMILES.

The target in this assay is T1, Glycylpeptide N-tetradecanoyltransferase (Plasmodium falciparum (isolate 3D7), UniProt Q8ILW6).
T1 sequence (Q8ILW6 whole entry): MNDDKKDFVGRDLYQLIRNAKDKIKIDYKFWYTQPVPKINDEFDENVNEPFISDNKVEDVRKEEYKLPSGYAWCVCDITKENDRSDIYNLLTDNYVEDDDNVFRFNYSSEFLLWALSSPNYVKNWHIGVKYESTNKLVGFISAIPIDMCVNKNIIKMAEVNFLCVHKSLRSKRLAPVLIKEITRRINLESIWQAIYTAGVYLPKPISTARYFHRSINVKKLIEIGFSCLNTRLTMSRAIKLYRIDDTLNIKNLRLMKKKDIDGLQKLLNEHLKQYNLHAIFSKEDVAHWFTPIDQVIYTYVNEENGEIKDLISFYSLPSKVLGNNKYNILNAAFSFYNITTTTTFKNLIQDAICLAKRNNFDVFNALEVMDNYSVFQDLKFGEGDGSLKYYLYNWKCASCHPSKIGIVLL
As to the kind of experiment: Inhibition of Plasmodium falciparum NMT preincubated for 10 to 20 mins followed by Hs pp60src (2 to 16 residues) substrate addition measured after 60 mins by CPM-based fluorescence assay. Conditions: read-out: Ki(app).

Take `CCSc1c(CO)cnc2ccc(OCc3ccccc3)cc12`: the Ki was over 10 µM. The same measure for `CCOC(=O)c1cnc2ccc(OCc3ccccc3)cc2c1SCCC#N`: over 10 µM; for `CCOC(=O)c1cnc2ccc(OCc3ccccc3)cc2c1S(=O)(=O)CC`: over 10 µM.
